Reference: US20130316389A1, “Method and System for Determining Characteristics of an Embryo and Uses Thereof” (University of Plymouth, priority 2010, published 2013)

Tested on: zebra fish (Danio rerio) embryos
Experiment: Movement pattern analysis of zebra fish embryos subjected to challenge (Example 5)
Assay type: in vivo
Conditions: 30 minutes exposure
Procedure: Images of the movement of each subject embryo were recorded for a period of ten minutes. The imaging apparatus comprised a 4 megapixel monochrome camera (AVT Pike 421) operating at 15 Hz with a 1600×1200 pixel region of interest, connected to a zooming optic lens system (Keyence VHZ100R).
This temporal tracking technique first extracts corner features from each image. Thereafter, image features are registered from frame to frame and assigned a velocity variance to each, A feature with a high velocity variance was rejected, as indicating inaccurate tracking. The remaining features were used in subsequent analysis of the movement pattern of the embryo.
Four parameters of motion of the subject embryo were extracted from each frame of the image data and compared with the corresponding parameters in the preceding frames. The four parameters of motion were positive and negative angles of rotation, and Rho-theta angular changes to the centre of mass for the embryo. The centre of mass of the embryo was determined by determining the X and Y coordinates of every point of motion detected. The X and Y coordinates were summed to provide mean values for X and Y.
The resulting data were analysed for spectral content using the Fast Discrete Fourier Transform (FDFT), to generate data relating to the frequency of motion of the subject embryo. […] 18 frequency bins were analysed from the FDFT analysis. […]

CCO [ethanol]
movement pattern (optic flow) compared with the control embryos (1.5% ethanol in deionised water, stage 19 and 21.5 hpf embryos, 27° C): more peaks in positive and negative rotational movement and X and Y displacement of the centre of mass
distinction from control embryos by ANOSIM analysis of movement patterns (1.5% ethanol, stage 33 embryos): readily distinguished from the stage 33 control embryos
